How the values were obtained:
DNMT1 [1] = target: T1, DNMT1 (Homo sapiens, UniProt P26358); test: biochemical DNMT activity quantification kit (Abcam), three […] pure preparations, n = […]
DNMT1 [2] = target: T1, DNMT1; test: scintillation proximity methylation assay (SPA) screen with purified DNMT1; IC50 in Supplementary Figure S1A; assay type: biochemical; design: full-length recombinant human DNMT1

T1 sequence (P26358 whole entry): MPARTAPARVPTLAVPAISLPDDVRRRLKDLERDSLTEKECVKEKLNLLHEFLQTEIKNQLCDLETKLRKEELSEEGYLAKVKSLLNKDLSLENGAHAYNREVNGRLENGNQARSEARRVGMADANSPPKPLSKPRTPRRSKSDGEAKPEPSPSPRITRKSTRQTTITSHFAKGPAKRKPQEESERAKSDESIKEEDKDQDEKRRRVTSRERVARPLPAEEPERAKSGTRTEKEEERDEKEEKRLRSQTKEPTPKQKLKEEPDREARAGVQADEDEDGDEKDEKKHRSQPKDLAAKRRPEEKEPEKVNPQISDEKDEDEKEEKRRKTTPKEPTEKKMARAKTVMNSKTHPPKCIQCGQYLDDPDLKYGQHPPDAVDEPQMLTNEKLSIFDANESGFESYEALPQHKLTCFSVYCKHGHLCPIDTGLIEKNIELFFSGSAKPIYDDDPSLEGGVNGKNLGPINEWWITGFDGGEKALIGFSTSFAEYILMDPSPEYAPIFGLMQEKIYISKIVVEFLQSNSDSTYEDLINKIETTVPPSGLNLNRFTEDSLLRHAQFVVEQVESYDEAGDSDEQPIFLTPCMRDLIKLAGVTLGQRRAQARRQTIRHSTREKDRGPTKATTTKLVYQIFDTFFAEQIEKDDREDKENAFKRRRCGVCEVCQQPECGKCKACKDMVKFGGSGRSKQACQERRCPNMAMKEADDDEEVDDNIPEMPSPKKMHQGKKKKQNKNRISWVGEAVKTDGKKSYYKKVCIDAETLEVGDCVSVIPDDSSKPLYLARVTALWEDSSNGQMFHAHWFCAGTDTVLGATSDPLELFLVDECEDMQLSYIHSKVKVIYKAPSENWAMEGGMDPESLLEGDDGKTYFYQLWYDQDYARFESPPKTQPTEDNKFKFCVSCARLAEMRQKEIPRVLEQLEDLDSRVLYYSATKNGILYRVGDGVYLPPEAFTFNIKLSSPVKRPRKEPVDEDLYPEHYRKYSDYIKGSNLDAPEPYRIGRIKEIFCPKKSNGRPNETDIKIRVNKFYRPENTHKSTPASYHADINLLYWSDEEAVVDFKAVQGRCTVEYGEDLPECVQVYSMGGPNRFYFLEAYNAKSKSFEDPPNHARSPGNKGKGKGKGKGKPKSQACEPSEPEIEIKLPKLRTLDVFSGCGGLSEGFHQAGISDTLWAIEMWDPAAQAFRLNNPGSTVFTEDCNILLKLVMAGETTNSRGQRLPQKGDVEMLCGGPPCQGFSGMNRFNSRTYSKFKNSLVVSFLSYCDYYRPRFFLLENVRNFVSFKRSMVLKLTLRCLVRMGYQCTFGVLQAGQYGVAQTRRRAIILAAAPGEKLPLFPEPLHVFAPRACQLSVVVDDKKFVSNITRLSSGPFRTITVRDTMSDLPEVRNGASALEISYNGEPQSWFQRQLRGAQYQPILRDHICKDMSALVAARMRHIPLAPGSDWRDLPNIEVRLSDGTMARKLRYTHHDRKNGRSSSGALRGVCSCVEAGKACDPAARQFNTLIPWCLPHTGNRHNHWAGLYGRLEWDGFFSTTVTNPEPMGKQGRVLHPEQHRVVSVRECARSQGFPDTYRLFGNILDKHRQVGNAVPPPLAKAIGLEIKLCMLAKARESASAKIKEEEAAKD

O=C1c2c(O)cc(O)cc2O[C@H](c2cc(O)c(O)c(O)c2)[C@H]1O [DHM, 3,3′,4′,5,5’,7-hexahydroxy-2,3-dihydroflavanonol]
biochemical DNMT activity quantification kit (Abcam), three >95% pure preparatio (DNMT1 [1]): DNMT1 inhibitory activity for DHM in the similar concentration range like myricetin (Figure 1D; Supplementary Figure S1B)

O=c1c(O)c(-c2cc(O)c(O)c(O)c2)oc2cc(O)cc(O)c12 [Myr, myricetin]
IC50 (DNMT1 [2]): 43.4 µM
